This is an account of results in patent publication US9290459B1, “Substituted bicyclic dihydropyrimidinones and their use as inhibitors of neutrophil elastase activity” (Boehringer Ingelheim International GmbH, priority 2013, dated 2016).

SMILES strings stand for the structures. Values after ≈ are worked out from the molar mass of the structure shown. Values joined by “and” are separate entries in the source; they are usually repeats but may differ in a detail not shown here. Equal entries are not always repeated. Where two headings read alike, the source gives them in different places.

Data set [1] has as its target Human neutrophil elastase (Homo sapiens (Human), UniProt P08246). In words: Human Neutrophil Elastase Assay. Format: biochemical. To be noted: substrate MeOSuc-Ala-Ala-Pro-Val-AMC 250 μM, pH 7.5.
In data set [2] the target is neutrophil elastase in human plasma (Homo sapiens (Human), UniProt P08246). In words: Neutrophil elastase inhibitory activity in human plasma (zymosan-stimulated blood). Type of data set: biochemical.
Chain of neutrophil elastase in human plasma (P08246 30-247): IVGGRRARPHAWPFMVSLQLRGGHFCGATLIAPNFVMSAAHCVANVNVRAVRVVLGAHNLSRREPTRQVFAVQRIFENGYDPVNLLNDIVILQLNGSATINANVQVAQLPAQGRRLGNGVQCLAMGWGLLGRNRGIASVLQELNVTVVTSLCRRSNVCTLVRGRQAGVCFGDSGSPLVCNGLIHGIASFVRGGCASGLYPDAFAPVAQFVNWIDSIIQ
The nature of data set [3]: Metabolic stability with human liver microsomes. Format: in vitro ADME. To be noted: for half-life at 1 μM: pH 7.6. For orientation: Liver microsomes are vesicles of endoplasmic reticulum, rich in cytochrome P450 enzymes.
The subject of data set [4] is human hepatocytes. As to the kind of experiment: Metabolic stability with human hepatocytes. Type of data set: in vitro ADME. To be noted: human hepatocyte suspension, 1 μM test compound, scaled with well stirred model. As to the method: Assay for the Determination of Metabolic Stability with Human Hepatocytes The metabolic degradation of the test compound is assayed in a human hepatocyte suspension. Human hepatocytes (typically cryopreserved) are incubated in an appropriate buffer system (e.g. […] Samples are transferred into acetonitrile and pelleted by centrifugation (5 min) The supernatant is transferred to a new 96-deepwell plate, evaporated under nitrogen and resuspended. The decline of parent compound is analyzed by LC-MS/MS.

Data set [5] can be described thus: Aqueous solubility. Type of data set: physicochemical. To be noted: McIlvaine buffer pH 6.8, 2.5% DMSO, 24 h shaking; for solubility at 24 h: McIlvaine buffer pH 6.8 with 2.5% DMSO, pH 6.8, aqueous buffer, kinetic from dmso stock. As to the method: Assay for Determination of Aqueous Solubility […] After 24 h of shaking, the solutions or suspensions are filtered and analyzed by LC-UV. The amount dissolved in buffer is compared to the amount dissolved in the acetonitrile/water (1/1) solution.

Data set [6] in a line: Drug transport across human Caco-2 cells. Type of data set: in vitro ADME. To be noted: human; for Papp A→B at 10 µM / Papp B→A at 10 µM: Caco-2, pH 7.2, Caco-2 monolayers, pH 7.2, 37° C.; for Papp A→B at 10 µM: apical-to-basal, read-out: PEAB; for Papp B→A at 10 µM: basal-to-apical, read-out: PEBA; for efflux ratio at 10 μM: Caco-2, pH 7.2, PEBA/PEAB, Caco-2.
Excerpt: (§1) Assay for Determination of Drug Transport Across Human Caco-2 Cells The assay provides information on the potential of a compound to pass the cell membrane, on the extent of oral absorption as well as on whether the compound is actively transported by uptake and/or efflux transporters. […] The compounds are assigned to permeability/absorption classes by comparison of the AB permeabilities with the AB permeabilities of reference compounds with known in vitro permeability and oral absorption in the human. Identical or similar permeabilities in both transport directions indicate passive permeation, vectorial permeability points to additional active transport mechanisms. […] Active transport is concentration-dependently saturable. Caco-2 cells (1-2*10^5 cells/cm^2 area) are seeded on filter inserts (Costar transwell polycarbonate or PET filters, 0.4 nm pore size) and cultured (DMEM) for 10 to 25 days. […] The transport solution (TL) is applied ici to the apical or basolateral donor side for measuring A-B or B-A permeability (3 filter replicates), respectively. The receiver side contains HTP-4 buffer supplemented with 2% BSA. […] Sampled receiver volumes are replaced with fresh receiver solution.
The test system of data set [7] is Caco-2 cells. As to the kind of experiment: Drug transport across human Caco-2 cells. Type of data set: in vitro ADME. To be noted: for PEAB / PEBA: Caco-2 monolayers, pH 7.2, 37° C.; for PEAB: apical-to-basal; for PEBA: basal-to-apical; for Efflux ratio: PEBA/PEAB, Caco-2. For orientation: Passage across Caco-2 layers is used to estimate intestinal permeability.
Excerpt: as §1
The mark [8] stands for this setting: human neutrophil elastase, read-out: IC50.
The mark [9] stands for this setting: neutrophil elastase enriched human plasma from zymosan-stimulated blood, read-out: EC50.
[10] abbreviates: pooled human liver microsomes, 1 mg/ml protein, 1 μM test compound, 37° C., NADPH.
[11] abbreviates: IC50, human neutrophil elastase.
The mark [12] stands for this setting: EC50, neutrophil elastase enriched human plasma from zymosan-stimulated blood.

Chain of Human neutrophil elastase (P08246 30-247): as above

For the molecule `N#Cc1ccc([C@@H]2C3=C(CCC3=O)N(c3cccc(C(F)F)c3)C(=O)N2C(=O)NCCCO)cc1` [Example 52A, (R)-4-(4-Cyanophenyl)-1-(3-(difluoromethyl)phenyl)-N-(3-hydroxypropyl)-2,5-dioxo-4,5,6,7-tetrahydro-1H-cyclopenta[d]pyrimidine-3(2H)-carboxamide], the IC50 in data set [1] (setting [8]) is under 1 nM. The EC50 in data set [2] (setting [9]) is under 1 nM. This molecule also returned a half-life at 1 μM in data set [3] (human, microsomes) of over 2.17 h. Moreover, in data set [4], the “CL (predicted human hepatic in vivo blood clearance)” value was 8 mL/min/kg. The solubility at 24 h in data set [5] was found to be 88 µg/mL (≈ 183 µM).
Take `CCNC(=O)N1C(=O)N(c2cccc(C(F)F)c2)C2=C(C(=O)CC2)C1c1ccc(C#N)cc1` (centres unmarked) [Example 52.2]: the IC50 in data set [1] (setting [8]) was under 1 nM. The EC50 in data set [2] (setting [9]) is 1 nM. The same molecule displayed a half-life at 1 μM in data set [3] (human, microsomes) of over 2.17 h. In addition, the “CL (predicted human hepatic in vivo blood clearance)” value in data set [4] was 3 mL/min/kg. For the same molecule, in data set [6], the Papp A→B at 10 µM worked out at 70.8 ×10⁻⁶ cm/s, the Papp B→A at 10 µM was determined as 80.3 ×10⁻⁶ cm/s and the efflux ratio at 10 μM stood at 1.1. Further, the solubility at 24 h in data set [5] turned out to be 16 µg/mL (≈ 35.5 µM).
As to `CN1C(=O)N(c2cccc(C(F)(F)F)c2)C2=C(C(=O)CC2)[C@H]1c1ccc(C#N)cc1S(C)(=O)=O` [Example 25, (S)-4-(3-Methyl-2,5-dioxo-1-(3-(trifluoromethyl)phenyl)-2,3,4,5,6,7-hexahydro-1H-cyclopenta[d]pyrimidin-4-yl)-3-(methylsulfonyl)benzonitrile], the IC50 in data set [1] (setting [8]) was under 1 nM. In addition, in data set [2] (setting [9]), the EC50 was determined as 1 nM. In addition, the half-life at 1 μM in data set [3] (human, microsomes) was over 2.17 h. Moreover, the “CL (predicted human hepatic in vivo blood clearance)” value in data set [4] is 2 mL/min/kg. In data set [6], the Papp A→B at 10 µM stood at 56.7 ×10⁻⁶ cm/s, the Papp B→A at 10 µM was determined as 74 ×10⁻⁶ cm/s and the efflux ratio at 10 μM stood at 1.3. In addition, the concentration in solution in data set [5] (solubility at 24 h) was 62 µg/mL (≈ 127 µM).
Take `N#Cc1ccc(C2C3=C(CCC3=O)N(c3cccc(C(F)(F)F)c3)C(=O)N2C(=O)NC2CCOCC2)cc1` (centres unmarked) [Example 41.16]: the “t1/2 INVITRO” value in data set [3] (setting [10]) is over 2.17 h. Also, in data set [7], the PEAB came to 58.9 ×10⁻⁶ cm/s, the PEBA is 57.7 ×10⁻⁶ cm/s and the Efflux ratio is reported as 1.0.
For `C[C@H](CO)NC(=O)N1C(=O)N(c2cccc(C(F)(F)F)c2)C2=C(C(=O)CC2)C1c1ccc(C#N)cc1` (some centres unmarked) [Example 41.4], the “t1/2 INVITRO” value in data set [3] (setting [10]) is over 2.17 h. The “CL (predicted human hepatic in vivo blood clearance)” value in data set [4] is 5 mL/min/kg. Further, in data set [7], the PEAB is 9.41 ×10⁻⁶ cm/s, the PEBA was 81.5 ×10⁻⁶ cm/s and the Efflux ratio amounted to 8.7. In data set [5], this molecule yielded an Aqueous solubility of 92 µg/mL.
Regarding `N#Cc1ccc(C2C3=C(CCC3=O)N(c3cccc(C(F)(F)F)c3)C(=O)N2C(=O)NCCCO)cc1` (centres unmarked) [Example 7.3], in data set [3] (setting [10]), the “t1/2 INVITRO” value was over 2.17 h. In addition, the “CL (predicted human hepatic in vivo blood clearance)” value in data set [4] was 7 mL/min/kg. For the same molecule, in data set [7], the PEAB worked out at 9.49 ×10⁻⁶ cm/s, the PEBA came out at 67.1 ×10⁻⁶ cm/s and the Efflux ratio worked out at 7.1. In data set [5], the Aqueous solubility is 72 µg/mL.
Turning to `N#Cc1ccc(C2C3=C(CCC3=O)N(c3cccc(C(F)(F)F)c3)C(=O)N2C(=O)NC2(CO)CC2)cc1` (centres unmarked) [Example 41.5], in data set [7], the PEAB stood at 8.85 ×10⁻⁶ cm/s, the PEBA worked out at 77 ×10⁻⁶ cm/s and the Efflux ratio is 8.7. In data set [5], this molecule returned an Aqueous solubility of 82 µg/mL.
Turning to `CC(C)(O)CCNC(=O)N1C(=O)N(c2cccc(C(F)(F)F)c2)C2=C(C(=O)CC2)C1c1ccc(C#N)cc1` (centres unmarked) [Example 41.17], in data set [3] (setting [10]), the “t1/2 INVITRO” value is over 2.17 h. Further, the “CL (predicted human hepatic in vivo blood clearance)” value in data set [4] was 3 mL/min/kg. Besides, in data set [7], the PEAB worked out at 23.4 ×10⁻⁶ cm/s, the PEBA was determined as 80.7 ×10⁻⁶ cm/s and the Efflux ratio was found to be 3.5. The Aqueous solubility in data set [5] amounted to 54 µg/mL.
With `C[C@H](O)CNC(=O)N1C(=O)N(c2cccc(C(F)(F)F)c2)C2=C(C(=O)CC2)C1c1ccc(C#N)cc1` (some centres unmarked) [Example 41.1], the “t1/2 INVITRO” value in data set [3] (setting [10]) was over 2.17 h. For the same molecule, the “CL (predicted human hepatic in vivo blood clearance)” value in data set [4] was 2 mL/min/kg. Also, in data set [7], the PEBA is 72.9 ×10⁻⁶ cm/s and 90.3 ×10⁻⁶ cm/s; the Efflux ratio was 8.9 and 4.8. Besides, the Aqueous solubility in data set [5] was 97 µg/mL and 73 µg/mL.
For the molecule `CN1C(=O)N(c2cccc(C(F)(F)F)c2)C2=C(C(=O)CC2)C1c1ccc(C#N)cc1[S+](C)[O-]` (single isomer, unassigned) [Example 30B, 4-(3-Methyl-2,5-dioxo-1-(3-(trifluoromethyl)phenyl)-2,3,4,5,6,7-hexahydro-1H-cyclopenta[d]pyrimidin-4-yl)-3-(methylsulfinyl)benzonitrile], it took 2 nM to reach half-maximal inhibition in data set [1] (setting [11]) (IC50). Besides, in data set [2] (setting [12]), the EC50 amounted to 2 nM. Further, the half-life at 1 μM in data set [3] (pooled human liver microsomes, 1 mg/ml protein, 1 μM test compound, 37° C., NADPH, read-out: t1/2 INVITRO) was over 2.17 h. Further, in data set [6], the Papp B→A at 10 µM was found to be 71.4 ×10⁻⁶ cm/s and the efflux ratio at 10 μM was 5.9. In addition, the PEAB in data set [7] came to 12 ×10⁻⁶ cm/s. Besides, the solubility at 24 h in data set [5] was determined as 65 µg/mL (≈ 137 µM).
Turning to `CS(=O)(=O)c1cc(C#N)ccc1[C@@H]1C2=C(CCC2=O)N(c2cccc(C(F)(F)F)c2)C(=O)N1CC#N` [Example 23, (S)-4-(3-(Cyanomethyl)-2,5-dioxo-1-(3-(trifluoromethyl)phenyl)-2,3,4,5,6,7-hexahydro-1H-cyclopenta[d]pyrimidin-4-yl)-3-(methylsulfonyl)benzonitrile], the IC50 in data set [1] (setting [8]) was determined as 3.4 nM. In addition, in data set [2] (setting [9]), the EC50 was under 1 nM. Moreover, in data set [3] (human, microsomes), the half-life at 1 μM is over 2.17 h. Further, in data set [4], the “CL (predicted human hepatic in vivo blood clearance)” value was 0 mL/min/kg. Further, in data set [6], the Papp A→B at 10 µM was found to be 10.3 ×10⁻⁶ cm/s, the Papp B→A at 10 µM came to 93.5 ×10⁻⁶ cm/s and the efflux ratio at 10 μM was 9.1. The solubility at 24 h in data set [5] is 15 µg/mL (≈ 29.2 µM).
Regarding `CN1C(=O)N(c2cccc(C(F)(F)F)c2)C2=C(C(=O)CC2)C1c1ccc(C#N)cc1[S+](C)[O-]` (single isomer, unassigned) [Example 30A, 4-(3-Methyl-2,5-dioxo-1-(3-(trifluoromethyl)phenyl)-2,3,4,5,6,7-hexahydro-1H-cyclopenta[d]pyrimidin-4-yl)-3-(methylsulfinyl)benzonitrile], the IC50 in data set [1] (setting [11]) was found to be 1.3 nM. In addition, the EC50 in data set [2] (setting [12]) was 1 nM. In data set [3] (setting [10]), the “t1/2 INVITRO” value was over 2.17 h. For the same molecule, in data set [7], the PEAB is 3.52 ×10⁻⁶ cm/s, the PEBA was found to be 39 ×10⁻⁶ cm/s and the Efflux ratio was 11.1. The molecule also came in with an Aqueous solubility in data set [5] of 51 µg/mL.

Usually IC50 stands for the concentration needed to halve the response being measured. Broadly, the EC50 is the midpoint of the concentration-response curve. By solubility is commonly meant how much of the substance goes into solution per volume. As usually defined, the efflux ratio is a quotient of directional permeabilities that is used to spot active efflux. As a reminder, the Aqueous solubility is the dissolved amount per volume that the medium holds. Low readings indicate little dissolved substance, high ones much dissolved substance.
